The subject of one assay is SRS-A release. The assay can be described thus: inhibition of leukotriene (SRS-A) release in vitro, lung fragments of sensitized guinea pigs challenged with ovalbumin. In kind it is cell-based. The settings on record: 12 min preincubation, 20 μg/ml ovalbumin challenge 15 min; for inhibition at 10 µM: Cavia porcellus, guinea pig lung fragments. On the procedure: In one such test procedure, the anti-allergy method of this invention is identified by tests which measure a compound's inhibition of leukotriene release in sensitized guinea pigs. Male Hartley guinea pigs (250-300 g) are sensitized with 5 mg ovalbumin injected i.p. and 5 mg injected s.c. in 1 ml saline on day 1 and 5 mg ovalbumin injected i.p. on day 4. The sensitized animals are used 3-4 weeks later at which time they weigh 450-500 g. Sensitized guinea pigs are killed by a blow to the head and the lungs removed and cleaned of visible connective tissue, trachea and large blood vessels. The lungs from individual animals are sliced into fragments approximately 1 mm in thickness using a McIlwain tissue chopper and then washed with oxygenated Tyrode's buffer. Weighed aliquots (approximately 400 mg wet weight) of lung are transferred into vials containing 2 ml of fresh Tyrode's solution (containing 10 mM cysteine) and incubated in the presence or absence of test compound for 12 min at 37° C. The tissues are then challenged with 20 μg ovalbumin/ml (final concentration) and incubated for 15 min.
To measure leukotriene release, an aliquot of supernatant fluid is extracted with 4 volumes of 100% ethanol. After removal of the precipitated protein, the leukotriene content is measured by a radioimmunoassay using [^3 H]LTC4 and antiserum obtained from New England Nuclear. […] Percent inhibition of lekotriene release is calculated by comparing for each lung the release in the presence of the test compound to that in the absence of test compound.

The subject of the next assay is sensitized guinea pigs. The experiment in a line: suppression of anaphylactic bronchospasm in ovalbumin-sensitized guinea pigs. The following applies: 5 mg/kg, orally 2 hours before ovalbumin challenge; peak increase in intratracheal pressure within 15 minutes vs vehicle. In kind it is in vivo, guinea pig. On the procedure:
Male Hartley guinea pigs (250-300 g) are sensitized with 5 mg ovalbumin injected i.p. and 5 mg injected s.c. in 1 ml saline on day 1 and 5 mg ovalbumin injected i.p. on day 4. The sensitized animals are used 3-4 weeks later at which time they weigh 450-500 g. The sensitized guinea pigs are fasted overnight and the following morning are anesthetized with 0.9 ml/kg i.p. of dialurethane (0.1 g/ml diallylbarbituric acid, 0.4 g/ml ethylurea and 0.4 g/ml urethane). The trachea are cannulated and the animals are ventilated by a Harvard® rodent respirator at 50 strokes/minute with a stroke volume of 5 ml. A side arm to the tracheal cannula is connected to a pressure transducer (Harvard) to obtain a continuous measure of intratracheal pressure which is recorded on a polygraph (Harvard). The jugular vein is cannulated for the i.v. administration of substances. The sensitized guinea pigs are injected i.v. with 1 mg/kg propranolol, 5 mg/kg indomethacin and 2 mg/kg mepyramine given together in a volume of 1 ml/kg. […] Bronchoconstriction is measured as the peak increase in intratracheal pressure occurring within 15 minutes after antigen challenge.
Test compounds are administered orally 2 hours before challenge with ovalbumin. Suppression of anaphylactic bronchospasm is expressed as a percent inhibition of the peak increase in intratracheal pressure by comparison to a vehicle-treated control group.

As to “3-[3-(Hexahydro-1H-azepin-1-yl)-1,2-dihydro-2-oxo-1,8-naphthyridin-1-yl]-benzo-nitrile”, the “Inhibition of SRS-A release in vitro - Guinea Pig Lung 10 μM” value with SRS-A release stood at 46%.

The inhibition is the relative decrease from the control value, in per cent. For `O=c1c(N2CCCC2)cc2cccnc2n1-c1cccc(C(F)(F)F)c1` [3-(1-pyrrolidinyl)-1-(3-trifluoromethylphenyl)-1,8-naphthyridin-2(1H)-one], in the assay with SRS-A release, the inhibition at 10 µM was 46%.

Turning to `O=c1c(N2CCOCC2)cc2cccnc2n1-c1ccccc1` [3-(4-Morpholinyl)-1-phenyl-1,8-naphthyridin-2(1H )-one], the inhibition at 10 µM with SRS-A release stood at 65%. Further, the “Inhibition of anaphylactic bronchospasm, % Inhibition” value in the assay with sensitized guinea pigs is given as 93%.

For `O=c1c(N2CCCC2)cc2cccnc2n1-c1ccccc1` [3-(1-pyrrolidinyl)-1-phenyl-1,8-naphthyridin-2(1H)-one], the inhibition at 10 µM in the assay with SRS-A release turned out to be 34%. The “Inhibition of anaphylactic bronchospasm, % Inhibition” value with sensitized guinea pigs is 61%.

`N#Cc1cccc(-n2c(=O)c(N3CCCC3)cc3cccnc32)c1` [3-(1-Pyrrolidinyl)-1-(3-cyanophenyl)-1,8-naphthyridin-2-(1H )-one]: the inhibition at 10 µM in the assay on SRS-A release is 43%.

For the compound “3-[1,2-Dihydro-3-(4-morpholinyl)-2-oxo-1,8-naphthyridin-1-yl]benzonitrile”, the “Inhibition of SRS-A release in vitro - Guinea Pig Lung 10 μM” value in the assay on SRS-A release came to 66%.

The values are drawn from patent publication US5760034A, “Heterocyclic substituted naphthyridinones and methods and compositions employing them” (Schering Corporation, priority 1992, dated 1998).
